The source of these data is patent publication US4377687A, “Analogs of 1-(2-chloroethyl)-1-nitroso-3-(cycloheyl)-urea substituted by heterocyclic rings or alkyl radicals” (Stiftung Deutsches Krebsforschungszentrum, priority 1978, dated 1983).

Data set [1] is described as follows: Toxicity in treated tumor-bearing rats (Yoshida sarcoma experiments). The format is in vivo, rat (Sprague-Dawley rats). Conditions: at the doses tested. The method, then:
(§1) Male Sprague-Dawley rats were used in the experiments. Yoshida sarcome in ascites form was maintained in the same strain of rats by serial intraperitoneal injection of 0,5 ml of ascites fluid.
(§2) 3×10^6 cells were injected into the colon wall in a manner known per se. The chemotherapeutic treatment was carried out on the eighth day after implantation of the tumor cells.
(§3) Water-insoluble compounds were dissolved in Cremophor EL/ethanol/physiological saline (20:20:60: vol.%). Water-soluble substances were dissolved in physiological saline. Cremophor EL is a surfactant on the basis of polyethoxylated castor oil. All test compounds were administered introperitoneally. The nitrosoureas were applied at approximately equitoxic doses corresponding to about 80% of the acute LD50 values observed in healthy rats of the same strain over a 28-day observation period.
(§4) Each experiment involved an untreated control group and a varying number of treated groups. Individual survival times were counted as days after tumor inoculation. At the time of death a record of whether an animal was tumor-free or not was made. All animals alive 120 days after tumor inoculation were killed. Animals that according to macroscopic examination had no tumor at the end of the experiment were considered as cured. Since in a number of control rats also no tumors occurred after 120 days the differences in cures between controls and treated animals rather than absolute numbers are reported. Differences in survival were evaluated statistically by individual comparisons between treated rats and controls using a nonparametric log-rank test (Kalbfleisch and Prentice, The statistical analysis of failure time data, Wiley, New York, 1979). Numerical evaluation was performed using a computerized system.

Data set [2] can be described thus: Water solubility.
In data set [3] the test system is Yoshida sarcoma. Type of data set: in vivo, rat (male Sprague-Dawley rats). The note with it: i.p.
Data set [4] deals with Yoshida sarcoma. The format is in vivo, rat (male Sprague-Dawley rats). The note with it: for M = median survival time: i.p. day 8; for effect on the survival time on retest (in words): Experiment 5, cyclophosphamide as a standard; for effect on survival time / life expectancy (in words): experiments 1-4, MeCCNU 45, morpholino-CNU 28 (exp. 3 and 5), dimethylmorpholine-CNU 45, piperidino-CNU 15, picolyl-3-CNU 25, picolyl-3-CNU.HCl 25 mg/kg; for chemotherapeutic activity against Yoshida sarcoma in the colon wall (in words): i.p. The method, then:
The chemotherapeutic activity of nitrosoureas was compared in antitumor tests using Yoshida sarcoma ascited cells implanted into the wall of the descending colon in Sprague-Dawley rats.
as §1, §2, §3, §4

Data set [5] in a line: Mean animal weight / weight gain after tumor transplantation. The format is in vivo, rat (Sprague-Dawley rats). Conditions: CP 70 (exp. 1-3), BCNU 25, MeCCNU 45 (exp. 1), picolyl-3-CNU 25, its HCl 25 (exp. 2), morpholino-CNU 28, piperidino-CNU 15 (exp. 3), dimethylmorpholino-CNU 45 mg/kg (exp. 4); for Mean animal weight on day 50: day 50 after tumor transplantation; for Mean animal weight on day 100: day 100 after tumor transplantation. The method, then: as §1, §2, §3
In all treated animals and at all doses tested the mean weight gain was lower than in the controls. Table 3 gives the mean animal weights measured 50 and 100 days after tumor transplantation in experiments 1 to 5.

Data set [6] relates to rat leukemia L 5222. The data set is described as follows: Chemotherapeutic activity against rat Leukemia L5222. Type of data set: in vivo, rat (BD IX rats). The note with it: rat, in vivo. The method, then: Chemotherapeutic activity of methylformylamino-CNU against rat Leukemia L5222 (CNU=chloroethyl-nitroso-urea)
The compound to be tested was solved in Chremophor EL/ethanol/physiological saline and a single dose was administered intraperitoneally into tumor inoculated BD IX rats. The experiment involved an untreated control group and a number of treated groups. The doses used and the effects of the praeterminal treatment are summarized in the following Table from which the cures (animals free of tumor after 120 days) and the increase in life span (ILS, expressed as percentage of survival of the treated test group to the untreated control group) are evident.
Considering the fact that the true measure of the effectiveness of a drug against a neoplastic desease is the ability of the drug to kill the neoplastic cells at dosages that are not toxic to the host animal and that a quantitative evaluation of drug action is usually obtained by using the L1210 leucemia system in mice, it will be realized that in this test the tumor cells are injected into the peritoneal cavity of a mouse which thereafter is treated with the drug to be tested at a very early time after the inoculation of the tumor, i.e. at the first or second day after tumor inoculation. Thus such screening is done under very favourable test conditions for the drug. Contrary thereto the administration of the drug to be tested is performed relatively late in the case of the rat leucemia L5222, i.e. at the 8th day after tumor inoculation. It must, therefore, be taken that at that time tumor cells have colonized the cerebral region, i.e. the meninges, so that cures can only be obtained if the drug has an activity high enough to kill the leucemia cells in the cerebral region in a praeterminal state. Thus by far more severe test conditions are involved when treating rat leucemia L5222 or type Yoshida sarcoma which is a tumor model and which are hard to influence by known drugs.

Data set [7] in a line: Stability of the substance. Type of data set: physicochemical.
Setting [8] is: Experiment 3, CP 70, morpholino-CNU 28, piperidino-CNU 15 mg/kg.
Setting [9] is: Experiment 3, CP 70, morpholino-CNU 28, piperidino-CNU 15 mg/kg, 30 initial animals each.
Where [10] appears, read: Experiment 5, CP 70, picolyl-3-CNU.HCl 25, morpholino-CNU 28, piperidino-CNU 15 mg/kg.
Setting [11] is: Experiment 5, CP 70, picolyl-3-CNU.HCl 25, morpholino-CNU 28, piperidino-CNU 15 mg/kg, 15 initial animals (picolyl-3-CNU.HCl 14).
Where [12] appears, read: Experiment 5, CP 70, piperidino-CNU 15 mg/kg.

Where two headings read alike, the source gives them in different places. Bounds are passed on as bounds.

For the compound `O=NN(CCCl)C(=O)NN1CCCCC1` [Piperidino-CNU, 1-(2-chloroethyl)-1-nitroso-3-(1-piperidine)urea], the “toxicity (in words)” value in data set [1] is “No toxic effects were seen”. For the same compound, the “toxicity (in words)” value in data set [1] (listed as piperidino-CNU) was “less toxic than cyclophosphamide”. In addition, the “water solubility (in words)” value in data set [2] is given as “water-soluble”. For the same compound, the “concentration reached in the distal colon (in words)” value in data set [3] is on record as “reached the distal colon at chemotherapeutically effective concentrations”. In data set [4] (120 days), the “tumor-free animals at the end of the experiment (in words)” value (from here on “tumor-free animals at the end”) is listed as “remarkable increase in tumor-free animals”. In addition, the “increase in tumor-free animals (cures) above controls” value in data set [4] (120 days, CP (exp. 1-3), BCNU, MeCCNU 45, dimethylmorpholine-CNU 45, piperidino-CNU 15, picolyl-3-CNU.HCl 25 mg/kg) was 21%. Also, in data set [4] (setting [8]), the “% M (median survival time, untreated control = 100)” value is greater than 686%; the “D1-120 = difference (%) between tf1-120 of treated and untreated animals” value came to 21%; the “D120 = difference (%) between tf120 of treated and untreated animals” value (“D120 = difference (%) between tf120” below) is 21%; the “tf1-120 (%) (tf120 + animals dying of toxicity)” value (shortened to “tf1-120 (%)”) was 50%. In addition, in data set [4] (setting [8]), the “tf120 (%) (animals surviving day 120 without tumor)” value is listed as 50% and the “M = median survival time” value is greater than 120 days. Also, in data set [4] (setting [9]), the “tf1-120, No. (tf120 + animals dying of toxicity)” value came to 15 and the “tf120, No. (animals surviving day 120 without tumor)” value turned out to be 15. In addition, in data set [4], the “effect on the survival time on retest (in words)” value is given as “significant increasing effect on the survival time”, the “effect on survival time / life expectancy (in words)” value is “significantly increased the survival time” and the “chemotherapeutic activity against Yoshida sarcoma in the colon wall (in words)” value (“chemotherapeutic activity” for short) was “active”. In data set [4] (setting [10]), the “% M (median survival time, untreated control = 100)” value amounted to 160%; the “D1-120 = difference (%) between tf1-120 of treated and untreated animals” value came to 13%; the “D120 = difference (%) between tf120” value is 7%; the “M = median survival time” value is given as 16 days. For the same compound, in data set [4] (setting [11]), the “tf1-120, No. (tf120 + animals dying of toxicity)” value is listed as 2 and the “tf120, No. (animals surviving day 120 without tumor)” value was 1. Further, in data set [4] (setting [12]), the “tf1-120 (%)” value turned out to be 13% and the “tf120 (%) (animals surviving day 120 without tumor)” value is recorded as 7%. For the same compound, the “effect on survival time / life expectancy (in words)” value in data set [4] (listed as piperidino-CNU) was “significant increase in survival time”. In addition, in data set [5], the “Mean animal weight on day 50” value turned out to be 340 g and the “Mean animal weight on day 100” value turned out to be 410 g. In data set [6], the “effectiveness in rat leukemia L 5222 (in words)” value is given as “very good effectiveness”.
With `NNC(=O)N(CCCl)N=O` [Example 8, 1-(2-chloroethyl)-1-nitroso-3-amino-urea], in data set [7], the “stability (in words)” value was “slightly stable”. In data set [7] (stored in the deep freezing compartment at -30° C.), the “stability on storage (in words)” value is on record as “stable for a few days”.
Turning to `O=NN(CCCl)C(=O)NN1CCOCC1` [Morpholino-CNU, 1-(2-chloroethyl)-1-nitroso-3-(4-morpholino)-urea], in data set [2], the “water solubility (in words)” value was “water-soluble”. In data set [2] (listed as Example 2), the “water solubility (in words)” value was “highly water-soluble”. Moreover, the “concentration reached in the distal colon (in words)” value in data set [3] is “reached the distal colon at chemotherapeutically effective concentrations”. Also, in data set [4] (120 days), the “tumor-free animals at the end” value is “large number of tumor-free animals”. Besides, the “tumor-free animals at the end” value in data set [4] (120 days, listed as morpholino-CNU) was “remarkable increase in tumor-free animals”. Also, in data set [4] (setting [8]), the “% M (median survival time, untreated control = 100)” value is given as greater than 686%; the “D1-120 = difference (%) between tf1-120 of treated and untreated animals” value is given as 41%; the “D120 = difference (%) between tf120” value worked out at 34%; the “tf1-120 (%)” value was 70%. In addition, in data set [4] (setting [8]), the “tf120 (%) (animals surviving day 120 without tumor)” value stood at 63% and the “M = median survival time” value was greater than 120 days. Also, in data set [4] (setting [9]), the “tf1-120, No. (tf120 + animals dying of toxicity)” value stood at 21 and the “tf120, No. (animals surviving day 120 without tumor)” value is 19. In addition, in data set [4], the “effect on the survival time on retest (in words)” value is “significant increasing effect on the survival time”, the “effect on survival time / life expectancy (in words)” value is reported as “improved the survival times significantly” and the “chemotherapeutic activity” value is on record as “clear chemotherapeutic activity”. Besides, in data set [4] (setting [10]), the “% M (median survival time, untreated control = 100)” value turned out to be 180%; the “D1-120 = difference (%) between tf1-120 of treated and untreated animals” value was determined as 0%; the “D120 = difference (%) between tf120” value is 0%; the “M = median survival time” value stood at 18 days. For the same compound, in data set [4] (setting [11]), the “tf1-120, No. (tf120 + animals dying of toxicity)” value is 0 and the “tf120, No. (animals surviving day 120 without tumor)” value came to 0. In addition, the “therapeutic results compared with methyl-CCNU / clinically established nitrosoureas (in words)” value in data set [4] (Yoshida sarcoma of the rat implanted in the colon) is “better therapeutic results than e.g. the compound methyl-CCNU”. Also, in data set [4] (listed as morpholino-CNU), the “effect on survival time / life expectancy (in words)” value is on record as “significant increase in survival time” and the “chemotherapeutic activity” value is “active”. Also, in data set [5], the “Mean animal weight on day 50” value is 270 g and the “Mean animal weight on day 100” value was 270 g. Besides, the “effectiveness in rat leukemia L 5222 (in words)” value in data set [6] is “very good effectiveness”.
